These results are taken from patent publication US5023257A, “Intramuscular injection forms of gyrase inhibitors” (Bayer Aktiengesellschaft, priority 1988, dated 1991).

The structures appear in SMILES notation.

The data set can be described thus: release of the active compound from intramuscular suspensions. The note with it: oily suspensions, water-soluble form (hydrochlorides, lactates, mesilates and other salts), particularly with interfacially surface active materials.

Regarding `O=C(O)c1cn(C2CC2)c2cc(N3CCNCC3)c(F)cc2c1=O` [ciprofloxacin], the “release of the active compound” value was “very rapidly”.
